Values of other authors in PMC9516332 (Frontiers in Oncology, 2022).
Like-named read-outs stand apart in the source and are kept apart here.

Key:
[1] = biological target: panel of 255 wild-type kinases (Homo sapiens, UniProt Q86V86); conditions: kinase PIM3, 1 µmol/L single concentration, cited from earlier work
[2] = biological target: panel of 255 wild-type kinases (Homo sapiens, UniProt P21802); conditions: kinase FGFR2, 1 µmol/L single concentration, cited from earlier work
[3] = biological target: panel of 255 wild-type kinases (Homo sapiens, UniProt P35916); conditions: kinase FLT4, 1 µmol/L single concentration, cited from earlier work
[4] = biological target: panel of 255 wild-type kinases (Homo sapiens, UniProt P16234); conditions: kinase PDGFRα, 1 µmol/L single concentration, cited from earlier work
[5] = biological target: panel of 255 wild-type kinases (Homo sapiens, UniProt P78362); conditions: kinase SRPK2, 1 µmol/L single concentration, cited from earlier work
[6] = biological target: T1, panel of 255 wild-type kinases (Homo sapiens, UniProt P51817); conditions: kinase PRKX, 1 µmol/L single concentration, cited from earlier work
T1 sequence (P51817 1-358): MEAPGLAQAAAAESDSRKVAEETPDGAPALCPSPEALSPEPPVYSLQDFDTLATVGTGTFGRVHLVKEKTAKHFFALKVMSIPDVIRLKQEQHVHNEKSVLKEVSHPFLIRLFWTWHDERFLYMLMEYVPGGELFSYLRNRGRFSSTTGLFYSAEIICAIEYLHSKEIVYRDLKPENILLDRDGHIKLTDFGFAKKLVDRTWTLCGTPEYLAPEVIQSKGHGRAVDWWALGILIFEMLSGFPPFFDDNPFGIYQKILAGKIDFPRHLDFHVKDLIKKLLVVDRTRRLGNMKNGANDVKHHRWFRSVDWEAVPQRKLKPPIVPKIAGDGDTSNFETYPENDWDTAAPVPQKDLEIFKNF

[7] = biological target: T2, panel of 255 wild-type kinases (Homo sapiens, UniProt Q9UQB9); conditions: AurC kinase assay, 1 µmol/L single concentration, cited from earlier work
T2 sequence (Q9UQB9 1-309): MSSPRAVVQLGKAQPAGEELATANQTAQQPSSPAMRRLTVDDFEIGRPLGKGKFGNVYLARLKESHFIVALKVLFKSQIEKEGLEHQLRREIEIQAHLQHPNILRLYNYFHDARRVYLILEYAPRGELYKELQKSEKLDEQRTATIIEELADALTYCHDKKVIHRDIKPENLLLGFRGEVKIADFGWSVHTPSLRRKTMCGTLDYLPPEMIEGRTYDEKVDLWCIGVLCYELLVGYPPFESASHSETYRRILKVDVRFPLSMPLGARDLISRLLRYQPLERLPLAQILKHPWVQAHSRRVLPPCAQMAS

[8] = biological target: T3, panel of 255 wild-type kinases (Homo sapiens, UniProt P15735); conditions: kinase PHKG2, 1 µmol/L single concentration, cited from earlier work
T3 sequence (P15735 1-406): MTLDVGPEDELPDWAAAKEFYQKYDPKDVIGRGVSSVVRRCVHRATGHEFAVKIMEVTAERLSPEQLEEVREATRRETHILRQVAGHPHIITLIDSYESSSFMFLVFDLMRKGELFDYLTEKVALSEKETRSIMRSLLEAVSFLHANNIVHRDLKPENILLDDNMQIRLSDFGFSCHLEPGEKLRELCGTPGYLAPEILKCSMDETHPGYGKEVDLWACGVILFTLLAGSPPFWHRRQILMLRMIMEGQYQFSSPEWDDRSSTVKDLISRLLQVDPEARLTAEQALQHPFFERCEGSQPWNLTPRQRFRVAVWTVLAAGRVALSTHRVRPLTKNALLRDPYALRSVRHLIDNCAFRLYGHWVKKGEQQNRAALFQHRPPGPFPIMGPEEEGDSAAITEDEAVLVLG

[9] = biological target: panel of 255 wild-type kinases (Homo sapiens, UniProt P54764); conditions: kinase EPHA4, 1 µmol/L single concentration, cited from earlier work
[10] = biological target: T4, panel of 255 wild-type kinases (Homo sapiens, UniProt O00141); conditions: kinase SGK, 1 µmol/L single concentration, cited from earlier work
T4 sequence (O00141 1-431): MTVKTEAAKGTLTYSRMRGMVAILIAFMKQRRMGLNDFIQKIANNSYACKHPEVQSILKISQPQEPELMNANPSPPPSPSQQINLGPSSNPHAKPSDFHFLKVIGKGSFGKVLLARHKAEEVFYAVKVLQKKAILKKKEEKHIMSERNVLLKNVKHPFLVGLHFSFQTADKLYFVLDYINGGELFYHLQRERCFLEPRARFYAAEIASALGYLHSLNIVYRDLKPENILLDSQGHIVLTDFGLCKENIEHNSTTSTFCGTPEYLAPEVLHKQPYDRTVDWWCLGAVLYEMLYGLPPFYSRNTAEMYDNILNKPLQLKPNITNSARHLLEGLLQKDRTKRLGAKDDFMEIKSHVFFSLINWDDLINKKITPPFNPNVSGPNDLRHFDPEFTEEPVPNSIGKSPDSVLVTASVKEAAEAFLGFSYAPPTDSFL

[11] = biological target: panel of 255 wild-type kinases (Homo sapiens, UniProt Q05655); conditions: cited from earlier work
[12] = biological target: panel of 255 wild-type kinases (Homo sapiens, UniProt Q9HC98); conditions: NEK6, 1 µmol/L single concentration, cited from earlier work
[13] = ref DOI: 10.1158/1535-7163.MCT-18-0877
[14] = ref DOI: 10.1371/journal.pone.0092146
[15] = kinase PKCδ, 1 µmol/L single concentration, ref DOI: 10.1371/journal.pone.0092146

In the case of `CO[C@@H]1[C@H](N(C)C(=O)c2ccccc2)C[C@H]2O[C@]1(C)n1c3ccccc3c3c4c(c5c6ccccc6n2c5c31)C(=O)NC4` [midostaurin], the “%-inhibition at 1 µmol/L, PIM3” value [1, 13] is listed as 71%, the “%-inhibition at 1 µmol/L, FGFR2” value [2, 13] is listed as 97% and the “%-inhibition at 1 µmol/L, FLT4” value [3, 13] is listed as 99%. For the same compound, the “%-inhibition at 1 µmol/L, PDGFRα” value [4, 13] was 99%, the “%-inhibition at 1 µmol/L, SRPK2” value [5, 13] was 25% and the “%-inhibition at 1 µmol/L, PRKX” value [6, 13] was 97%. For the same compound, the “%-inhibition AurC” value [7, 13] was 100%, the “%-inhibition at 1 µmol/L, PHKG2” value [8, 13] was 67% and the “%-inhibition at 1 µmol/L, EPHA4” value [9, 13] was 2.15%. The “%-inhibition at 1 µmol/L, SGK” value [10, 13] was 31%, the “%-inhibition at 1 µmol/L, PKCδ” value [11] was 93% and the “%-inhibition, NEK6” value [12, 13] was -8%.
For `C=CC(=O)Nc1cc(Nc2nccc(-c3cn(C)c4ccccc34)n2)c(OC)cc1N(C)CCN(C)C` [osimertinib], the “%-inhibition at 1 µmol/L, PIM3” value [1, 13] is given as 15%, the “%-inhibition at 1 µmol/L, FGFR2” value [2, 13] is given as 5.56% and the “%-inhibition at 1 µmol/L, FLT4” value [3, 13] is given as 40%. For the same compound, the “%-inhibition at 1 µmol/L, PDGFRα” value [4, 13] was 69%, the “%-inhibition at 1 µmol/L, SRPK2” value [5, 13] was 3.77% and the “%-inhibition at 1 µmol/L, PRKX” value [6, 13] was 1.37%. The “%-inhibition AurC” value [7, 13] was 2.33%, the “%-inhibition at 1 µmol/L, PHKG2” value [8, 13] was 11% and the “%-inhibition at 1 µmol/L, EPHA4” value [9, 13] was 3.54%. The “%-inhibition at 1 µmol/L, SGK” value [10, 13] was -11%, the “%-inhibition at 1 µmol/L, PKCδ” value ([11]; kinase PKCδ, 1 µmol/L single concentration, ref DOI: 10.1158/1535-7163.MCT-18-0877) was 16% and the “%-inhibition, NEK6” value [12, 13] was 0.319%.
In the case of `CC(=O)Nc1cccc(-n2c(=O)n(C3CC3)c(=O)c3c(Nc4ccc(I)cc4F)n(C)c(=O)c(C)c32)c1` [trametinib], the “%-inhibition at 1 µmol/L, PIM3” value [1, 14] is listed as 8.44%, the “%-inhibition at 1 µmol/L, FGFR2” value [2, 14] is listed as -2.64% and the “%-inhibition at 1 µmol/L, FLT4” value [3, 14] is listed as 1.51%. The “%-inhibition at 1 µmol/L, PDGFRα” value [4, 14] was 4.53%, the “%-inhibition at 1 µmol/L, SRPK2” value [5, 14] was -0.868% and the “%-inhibition at 1 µmol/L, PRKX” value [6, 14] was -1.19%. For the same compound, the “%-inhibition AurC” value [7, 14] was 1%, the “%-inhibition at 1 µmol/L, PHKG2” value [8, 14] was 2.81% and the “%-inhibition at 1 µmol/L, EPHA4” value [9, 14] was -5.3%. The “%-inhibition at 1 µmol/L, SGK” value [10, 14] was 0.217%, the “%-inhibition at 1 µmol/L, PKCδ” value [11, 15] was -4.75% and the “%-inhibition, NEK6” value [12, 14] was -0.324%.
For `CCCS(=O)(=O)Nc1ccc(F)c(C(=O)c2c[nH]c3ncc(-c4ccc(Cl)cc4)cc23)c1F` [vemurafenib], the “%-inhibition at 1 µmol/L, PIM3” value [1, 14] is listed as -5%, the “%-inhibition at 1 µmol/L, FGFR2” value [2, 14] is listed as 10% and the “%-inhibition at 1 µmol/L, FLT4” value [3, 14] is listed as 24%. The “%-inhibition at 1 µmol/L, PDGFRα” value [4, 14] was 87%, the “%-inhibition at 1 µmol/L, SRPK2” value [5, 14] was -2.2% and the “%-inhibition at 1 µmol/L, PRKX” value [6, 14] was -3.45%. The “%-inhibition AurC” value [7, 14] was 13%, the “%-inhibition at 1 µmol/L, PHKG2” value [8, 14] was -4.37% and the “%-inhibition at 1 µmol/L, EPHA4” value [9, 14] was -2%. The “%-inhibition at 1 µmol/L, SGK” value [10, 14] was -0.122%, the “%-inhibition at 1 µmol/L, PKCδ” value [11, 15] was -5% and the “%-inhibition, NEK6” value [12, 14] was -1.43%.
